From ChEMBL document CHEMBL3045262, “Synthesis and Insecticidal Activity of Novel 1-Benzoyl-3-phenylurea Derivatives with Polyfluoroethylsulfenyl, -sulfonyl, and-sulfinyl Substituents” (1992)

Key:
Format in all cases: functional
Spodoptera litura [1] = experiment: Larvicidal activity against third-instar larvae of Spodoptera litura infested in soybean seedling assessed as mortality at 2 ppm sprayed 6 days prior to infestation measured after 5 days
Spodoptera litura [2] = experiment: Larvicidal activity against third-instar larvae of Spodoptera litura infested in soybean seedling assessed as mortality at 2 ppm sprayed 1 day prior to infestation measured after 5 days
Plutella xylostella [3] = experiment: Larvicidal activity against second-instar larvae of Plutella xylostella (diamondback moth) infested raddish seedling assessed as mortality at 3.3 ppm sprayed 2 hr prior to infestation measured after 4 days
Adoxophyes orana [4] = experiment: Larvicidal activity against second-instar larvae of Adoxophyes orana infested soybean seedling assessed as mortality at 5 ppm measured after 7 days; conditions: 168 h
Adoxophyes orana [5] = experiment: Larvicidal activity against second-instar larvae of Adoxophyes orana infested soybean seedling assessed as mortality at 20 ppm measured after 7 days; conditions: 168 h
Plutella xylostella [6] = experiment: Larvicidal activity against second-instar larvae of Plutella xylostella (diamondback moth) infested raddish seedling assessed as mortality at 50 ppm sprayed 2 hr prior to infestation measured after 4 days

| SMILES | mortality at 2 ppm (Spodoptera litura [1]) [%] | mortality at 2 ppm (Spodoptera litura [2]) [%] | mortality at 3.3 ppm (Plutella xylostella [3]) [%] | mortality at 5 ppm (Adoxophyes orana [4]) [%] | mortality at 20 ppm (Adoxophyes orana [5]) [%] | mortality at 50 ppm (Plutella xylostella [6]) [%] |
| --- | --- | --- | --- | --- | --- | --- |
| O=C(NC(=O)c1c(F)cccc1F)Nc1ccc(SC(F)(F)C(F)F)cc1 | 20 | 55 | 100 | 5 |  |  |
| O=C(NC(=O)c1c(F)cccc1F)Nc1ccc(SC(F)(F)C(F)F)cc1F | 100 | 100 | 100 | 80 |  |  |
| O=C(NC(=O)c1c(F)cccc1F)Nc1ccc([S+]([O-])C(F)(F)C(F)F)cc1F (stereo unspecified) | 95 | 100 | 100 | 100 |  |  |
| O=C(NC(=O)c1c(F)cccc1F)Nc1ccc(S(=O)(=O)C(F)(F)C(F)F)cc1F | 100 | 100 | 100 | 100 |  |  |
| O=C(NC(=O)c1c(F)cccc1F)Nc1ccc(SC(F)(F)C(F)F)cc1Cl | 100 | 100 | 100 | 100 |  |  |
| O=C(NC(=O)c1c(F)cccc1F)Nc1ccc(S(=O)(=O)C(F)(F)C(F)F)cc1Cl | 100 | 100 | 95 | 100 |  |  |
| O=C(NC(=O)c1c(F)cccc1F)Nc1ccc(SC(F)(F)C(F)F)cc1Br | 100 | 100 | 100 | 100 |  |  |
| O=C(NC(=O)c1c(F)cccc1F)Nc1ccc(S(=O)(=O)C(F)(F)C(F)F)cc1Br | 85 | 100 | 65 | 40 |  |  |
| Cc1cc(SC(F)(F)C(F)F)ccc1NC(=O)NC(=O)c1c(F)cccc1F | 100 | 95 | 100 | 100 |  |  |
| Cc1cc([S+]([O-])C(F)(F)C(F)F)ccc1NC(=O)NC(=O)c1c(F)cccc1F (stereo unspecified) | 100 | 100 | 100 | 100 |  |  |
| Cc1cc(S(=O)(=O)C(F)(F)C(F)F)ccc1NC(=O)NC(=O)c1c(F)cccc1F | 100 | 100 | 100 | 100 |  |  |
| O=C(NC(=O)c1c(F)cccc1F)Nc1ccc(SC(F)(F)C(F)F)c(Cl)c1 | 100 | 100 | 100 |  | 65 |  |
| O=C(NC(=O)c1c(F)cccc1F)Nc1ccc(S(=O)(=O)C(F)(F)C(F)F)c(Cl)c1 | 35 | 60 | 80 | 100 |  |  |
| Cc1cc(NC(=O)NC(=O)c2c(F)cccc2F)ccc1SC(F)(F)C(F)F | 100 | 100 | 100 | 0 |  |  |
| Cc1cc(NC(=O)NC(=O)c2c(F)cccc2F)ccc1S(=O)(=O)C(F)(F)C(F)F | 60 | 70 | 100 | 25 |  |  |
| O=C(NC(=O)c1c(F)cccc1F)Nc1cc(Cl)c(SC(F)(F)C(F)F)cc1Cl | 85 | 100 | 100 | 100 |  |  |
| O=C(NC(=O)c1c(F)cccc1F)Nc1cc(Cl)c([S+]([O-])C(F)(F)C(F)F)cc1Cl (stereo unspecified) | 100 | 100 | 100 | 75 |  |  |
| O=C(NC(=O)c1c(F)cccc1F)Nc1cc(Cl)c(S(=O)(=O)C(F)(F)C(F)F)cc1Cl | 95 | 100 | 95 | 90 |  |  |
| O=C(NC(=O)c1c(F)cccc1F)Nc1ccc(Cl)cc1 [DIFLUBENZURON] | 15 | 20 |  |  | 20 | 20 |
